Where “and” joins values, the source holds several entries; their conditions need not be identical. Equal values may be shown once.
How the values were obtained:
Plasma protein binding = type: in vitro ADME; details: In vitro (human), read-out: Plasma protein binding, % bound (converted)
Recombinant LOXL-4 = target: T1, Recombinant LOXL-4 (Homo sapiens, UniProt Q96JB6); experiment: Lysyl oxidase enzymatic activity, fluorescence-based assay, IC50; type: biochemical
T1 sequence (Q96JB6 25-756): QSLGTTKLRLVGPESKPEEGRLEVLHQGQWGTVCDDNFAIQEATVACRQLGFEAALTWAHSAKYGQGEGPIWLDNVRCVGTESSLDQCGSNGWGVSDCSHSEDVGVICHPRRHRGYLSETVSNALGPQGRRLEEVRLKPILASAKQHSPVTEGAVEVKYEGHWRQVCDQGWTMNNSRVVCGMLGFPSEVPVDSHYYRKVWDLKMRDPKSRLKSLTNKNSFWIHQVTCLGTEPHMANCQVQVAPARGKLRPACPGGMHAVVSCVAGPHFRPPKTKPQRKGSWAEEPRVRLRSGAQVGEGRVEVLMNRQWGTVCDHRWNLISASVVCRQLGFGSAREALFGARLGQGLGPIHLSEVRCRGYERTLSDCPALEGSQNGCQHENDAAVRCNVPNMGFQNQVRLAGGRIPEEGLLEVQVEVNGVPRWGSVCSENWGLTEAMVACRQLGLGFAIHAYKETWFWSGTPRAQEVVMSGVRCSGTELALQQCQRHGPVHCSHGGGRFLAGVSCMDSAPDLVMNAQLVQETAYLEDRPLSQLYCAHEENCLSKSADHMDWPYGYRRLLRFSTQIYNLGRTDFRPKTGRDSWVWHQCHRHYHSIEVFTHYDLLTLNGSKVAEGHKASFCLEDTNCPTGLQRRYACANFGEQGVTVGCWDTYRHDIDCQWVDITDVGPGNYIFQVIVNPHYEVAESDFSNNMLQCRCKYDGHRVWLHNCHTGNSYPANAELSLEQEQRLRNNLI
From the text: (§1) Data are presented as mean ± s.d. […] Data presented as mean ± s.d. […] Source data TEXT PRINTED IN THE PICTURE: (b) PXS-5505: Recombinant DAO IC50 (nM): >30,000; Recombinant SSAO/VAP1 IC50 (nM): >30,000; Recombinant MAO-A IC50 (nM): >30,000; Recombinant MAO-B IC50 (nM): >30,000 | (f) PXS-5505: Fibroblast LOX IC50 (nM): 4,930; Recombinant LOXL-1 IC50 (nM): 1,590; Recombinant LOXL-2 IC50 (nM): 570; Recombinant LOXL-3 IC50 (nM): 1,800; Recombinant LOXL-4 IC50 (nM): 190
(§2) In characterizing PXS-5505, the half-maximum inhibitory concentration (IC50) values for each of the lysyl oxidase family members were determined by measuring enzymatic activity using a fluorescence-based assay.
(§3) Data presented as mean values +/− SD. f. […] Data presented as mean values +/− SD. […] Data presented as mean values +/− SD. […] Data presented as mean values +/− SD. Ordinary one-way ANOVA for multiple comparison test performed. Source data

LOXL2 = target: T2, LOXL2 (Homo sapiens, UniProt Q9Y4K0); experiment: as above; type: biochemical
T2 sequence (Q9Y4K0 26-774): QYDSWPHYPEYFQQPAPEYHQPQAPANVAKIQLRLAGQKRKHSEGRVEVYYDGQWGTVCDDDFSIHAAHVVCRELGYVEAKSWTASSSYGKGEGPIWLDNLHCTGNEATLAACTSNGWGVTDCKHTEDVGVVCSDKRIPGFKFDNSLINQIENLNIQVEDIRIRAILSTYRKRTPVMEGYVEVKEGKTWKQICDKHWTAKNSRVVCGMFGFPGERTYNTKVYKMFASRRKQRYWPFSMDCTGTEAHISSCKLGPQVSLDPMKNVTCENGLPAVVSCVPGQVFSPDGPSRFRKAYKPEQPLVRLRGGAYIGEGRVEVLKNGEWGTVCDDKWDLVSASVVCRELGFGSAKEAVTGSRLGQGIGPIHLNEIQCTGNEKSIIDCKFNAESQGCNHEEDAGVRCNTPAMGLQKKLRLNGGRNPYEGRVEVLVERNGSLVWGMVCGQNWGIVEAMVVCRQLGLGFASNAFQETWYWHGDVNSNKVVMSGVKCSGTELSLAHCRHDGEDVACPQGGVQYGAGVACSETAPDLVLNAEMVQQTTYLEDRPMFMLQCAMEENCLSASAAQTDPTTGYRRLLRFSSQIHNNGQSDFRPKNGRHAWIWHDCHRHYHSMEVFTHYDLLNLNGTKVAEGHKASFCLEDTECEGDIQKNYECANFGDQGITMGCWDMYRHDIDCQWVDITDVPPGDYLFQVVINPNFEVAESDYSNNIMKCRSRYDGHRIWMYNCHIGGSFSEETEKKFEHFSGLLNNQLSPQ
From the text: as §1, §2, §3

[1] = system: standard panel of macromolecular targets; experiment: Eurofins SafetyScreen44 off-target panel (enzyme and radioligand-binding assays); details: 30 µM
From the text: To increase specificity for the lysyl oxidase family, the design of PXS-5505 (Supplementary Data 1–3) was based upon substrate analog fluoroallylamines. Variants of fluoroallylamines have previously been used in amine oxidase inhibitors, including those targeting LOXL2 and LOXL3 (ref. [31]). […] Importantly, PXS-5505 not only maintains the potent functional inhibition of LOXL2 but linkage to a quinoline moiety improves potency for all other lysyl oxidase family members and is key to the superiority of PXS-5505 (Fig. 2a). PXS-5505 is the free base of the active principle, which is suitably isolated as a dihydrochloride salt.

[2] = log(Concentration) -4.52288, replicates, 30 µM
[3] = log(Concentration) -5, replicates, 10 µM
[4] = log(Concentration) -5.47712, replicates, 3.333 µM
[5] = log(Concentration) -5.95424, replicates, 1.111 µM
[6] = log(Concentration) -6.43136, replicates, 0.3704 µM
[7] = log(Concentration) -6.90849, replicates, 0.1235 µM
[8] = log(Concentration) -7.38561, replicates, 0.04115 µM
[9] = log(Concentration) -7.86273, replicates, 0.01372 µM
[10] = log(Concentration) -8.33985, replicates, 0.004572 µM
[11] = log(Concentration) -8.81697, replicates, 0.001524 µM
[12] = log(Concentration) -9.29409, replicates, 0.000508 µM

**Q.** Which fraction unbound (Plasma protein binding) does the source give for `Cl.Cl.NC/C=C(\F)CS(=O)(=O)c1cccc2cccnc12.O` [PXS-5505, (Z)-3-fluoro-4-(quinolin-8-ylsulfonyl)but-2-en-1-amine dihydrochloride monohydrate] here?
**A.** Its fraction unbound is 0.78.

**Q.** What about the IC50 (Recombinant LOXL-4) of the same compound?
**A.** The IC50 was 190 nM.

**Q.** And the “LOXL4 activity, IC50 determination curve” value (Recombinant LOXL-4; [2])?
**A.** The value was -2.4007 and -2.8906 and -3.2101 and -2.6712.

**Q.** What about the “LOXL4 activity, IC50 determination curve” value (Recombinant LOXL-4; [3]) of the same compound?
**A.** Its value is -1.4422 and -2.1664 and -2.1983 and -2.2521.

**Q.** What about the “LOXL4 activity, IC50 determination curve” value (Recombinant LOXL-4; [4]) of the same compound?
**A.** The value was 0.2192 and -0.9736 and -1.1972 and -0.2715.

**Q.** And the “LOXL4 activity, IC50 determination curve” value (Recombinant LOXL-4; [5])?
**A.** Its value is 5.544 and 5.363 and 4.947.

**Q.** And the “LOXL4 activity, IC50 determination curve” value (Recombinant LOXL-4; [6])?
**A.** The value was 33.33 and 26.333 and 28.4205.

**Q.** What about the “LOXL4 activity, IC50 determination curve” value (Recombinant LOXL-4; [7]) of the same compound?
**A.** Its value is 72.8948 and 68.0171 and 53.7035 and 49.075.

**Q.** What about the “LOXL4 activity, IC50 determination curve” value (Recombinant LOXL-4; [8]) of the same compound?
**A.** The value was 94.28 and 92.9061 and 89.562 and 72.7789.

**Q.** And the “LOXL4 activity, IC50 determination curve” value (Recombinant LOXL-4; [9])?
**A.** The value was 99.5304 and 98.9021 and 84.3689.

**Q.** What about the “LOXL4 activity, IC50 determination curve” value (Recombinant LOXL-4; [10]) of the same compound?
**A.** The value was 103.556 and 102.033 and 92.1549.

**Q.** And the “LOXL4 activity, IC50 determination curve” value (Recombinant LOXL-4; [11])?
**A.** Its value is 95.8121.

**Q.** And the “LOXL4 activity, IC50 determination curve” value (Recombinant LOXL-4; [12])?
**A.** The value was 96.0112.

**Q.** And the activity at 1.111 µM (Recombinant LOXL-4; read-out: LOXL4 activity, IC50 determination curve, log(Concentration) -5.95424, replicates)?
**A.** The activity at 1.111 µM was 6.34%.

**Q.** What about the activity at 0.3704 µM (Recombinant LOXL-4; read-out: LOXL4 activity, IC50 determination curve, log(Concentration) -6.43136, replicates) of the same compound?
**A.** Its activity at 0.3704 µM is 39.8%.

**Q.** And the activity at 0.01372 µM (Recombinant LOXL-4; read-out: LOXL4 activity, IC50 determination curve, log(Concentration) -7.86273, replicates)?
**A.** Its activity at 0.01372 µM is 101%.

**Q.** What about the activity at 0.004572 µM (Recombinant LOXL-4; read-out: LOXL4 activity, IC50 determination curve, log(Concentration) -8.33985, replicates) of the same compound?
**A.** The activity at 0.004572 µM was 106%.

**Q.** What about the activity at 0.001524 µM (Recombinant LOXL-4; read-out: LOXL4 activity, IC50 determination curve, log(Concentration) -8.81697, replicates) of the same compound?
**A.** Its activity at 0.001524 µM is 104%.

**Q.** What about the activity at 0.000508 µM (Recombinant LOXL-4; read-out: LOXL4 activity, IC50 determination curve, log(Concentration) -9.29409, replicates) of the same compound?
**A.** Its activity at 0.000508 µM is 105%.

**Q.** What about the IC50 (LOXL2) of the same compound?
**A.** Its IC50 is 570 nM.

**Q.** What about the “LOXL2 activity, IC50 determination curve” value (LOXL2; [2]) of the same compound?
**A.** Its value is 0.9304 and 1.355 and 0.47 and 0.4711 and 0.6366 and 0.3339 and 2.414 and 1.859 and 1.553 and 2.478.

**Q.** And the “LOXL2 activity, IC50 determination curve” value (LOXL2; [3])?
**A.** The value was 0.791 and 0.552 and 3.171 and 2.146 and 2.6 and 2.324 and 4.194 and 15.0185 and 14.1707 and 8.37.

**Q.** And the “LOXL2 activity, IC50 determination curve” value (LOXL2; [4])?
**A.** Its value is 9.121 and 8.824 and 12.3933 and 6.2776 and 9.388 and 8.093 and 13.2114 and 39.9206 and 33.7785 and 20.6899.

**Q.** And the “LOXL2 activity, IC50 determination curve” value (LOXL2; [5])?
**A.** Its value is 20.2389 and 25.6139 and 36.0073 and 28.0488 and 26.7357 and 24.6346 and 38.4827 and 46.4776 and 45.1428 and 35.5222.

**Q.** And the “LOXL2 activity, IC50 determination curve” value (LOXL2; [6])?
**A.** The value was 49.7826 and 57.6495 and 70.9317 and 50.7979 and 55.1496 and 52.5589 and 67.2849 and 60.9084 and 60.7641 and 53.7886.

**Q.** And the “LOXL2 activity, IC50 determination curve” value (LOXL2; [7])?
**A.** The value was 78.7223 and 82.1964 and 89.3928 and 77.9843 and 81.0351 and 77.3849 and 88.1863 and 70.6401 and 64.9941 and 65.916.

**Q.** What about the “LOXL2 activity, IC50 determination curve” value (LOXL2; [8]) of the same compound?
**A.** The value was 84.6124 and 93.105 and 97.9338.

**Q.** And the “LOXL2 activity, IC50 determination curve” value (LOXL2; [9])?
**A.** Its value is 94.5455 and 97.658 and 97.7862 and 96.4122 and 96.1969 and 92.4844 and 101.479 and 86.0269 and 80.2817 and 84.4595.

**Q.** And the “LOXL2 activity, IC50 determination curve” value (LOXL2; [10])?
**A.** Its value is 93.002 and 104.67 and 103.129 and 98.6809 and 97.1184 and 102.587 and 94.1262 and 87.5963 and 94.8578.

**Q.** What about the “LOXL2 activity, IC50 determination curve” value (LOXL2; [11]) of the same compound?
**A.** Its value is 103.323 and 104.142 and 98.8815 and 101.169 and 98.4227 and 104.725 and 98.8974 and 89.6166 and 94.7795.

**Q.** What about the “LOXL2 activity, IC50 determination curve” value (LOXL2; [12]) of the same compound?
**A.** The value was 94.0836 and 101.708 and 97.4085 and 100.105 and 99.6157 and 105.819 and 98.717 and 92.3043 and 96.8459.

**Q.** And the activity at 0.004572 µM (LOXL2; read-out: LOXL2 activity, IC50 determination curve, log(Concentration) -8.33985, replicates)?
**A.** Its activity at 0.004572 µM is 91.8%.

**Q.** What about the activity at 0.001524 µM (LOXL2; read-out: LOXL2 activity, IC50 determination curve, log(Concentration) -8.81697, replicates) of the same compound?
**A.** The activity at 0.001524 µM was 95.1%.

**Q.** And the activity at 0.000508 µM (LOXL2; read-out: LOXL2 activity, IC50 determination curve, log(Concentration) -9.29409, replicates)?
**A.** The activity at 0.000508 µM was 92%.

**Q.** What about the “off-target activity against a standard panel of macromolecular targets” value [1] of the same compound?
**A.** Its value is “does not show any significant off-target activity”.
